Assay results published in patent publication US20230255934A1, “NURR1 RECEPTOR MODULATORS AND USES THEREOF” (The Regents of the University of California, priority 2020, published 2023).
“Also recorded” adds a separate entry of the source. Like-named read-outs stand apart in the source and are kept apart here.

Key:
MN9D cells = test: CytoTox-Glo cytotoxicity assay; format: cell-based; details: 24 h treatment, 10 μM unless stated
Method: Cytotoxicity assays were carried out using the CytoTox-Glo Cytotoxicity Assay Kit (Promega) according to the manufacturer's instructions. Briefly, MN9D cells were resuspended in DMEM/F-12 with 5% FBS at 2·10^5 cells/ml and added to an equal volume of two-fold concentrated compound in the same media containing 0.2% DMSO (prepared by diluting DMSO stock of the compound in warm DMEM/F-12 with 5% FBS; for DMSO control equivalent volume of DMSO was used instead of the compound stock), and immediately re-plated onto poly-D-lysine pre-treated 96-well white-walled flat clear bottom plate (Corning cat #3903) at a density of 1·10^4 cells/well (100 μL/well), 3 replicas per compound. As a background (BG) control, for each of the compound (or DMSO) equivalent volume of compound mixed with DMEM/F-12+5% FBS was plated. After 24 h treatment at 37° C., in 5% C02 incubator, 50 μL of CytoTox-Glo™ Cytotoxicity Assay Reagent was added to each well, mixed briefly by orbital shaking and incubated for 15 min at ambient temperature. Luminescence signal corresponding to dead cells was measured using Biotek Synergy H4 hybrid microplate reader. After the measurement, 50 μL of Lysis Reagent was added to each well, mixed, incubated for 15 min at ambient temperature, and total luminescence was measured. The percentage of viable cells was then calculated as follows: Percent Viable Cells (%)=100% (Total cell luminescence (test compound)—Dead cell luminescence (test compound))/(Total cell luminescence (DMSO)—Dead cell luminescence (DMSO)).

[1] = UV/VIS spectroscopy (A280) under MST assay conditions; format: physicochemical; details: A280 linear over all concentrations, 0.1% Pluronic F127
[2] = molecular target: T1, Nurr1 LBD Arg563Ala + His516Ala (Homo sapiens, UniProt P43354, H516A/R563A); test: MST binding to Arg563Ala + His516Ala double mutant Nurr1 LBD; details: for Amplitude: Table 1, MST amplitude, H516A/R563A; for Response Amplitude: Table 2, MST, Arg563Ala + His516Ala
T1 construct: Mutants of LAP2 Nurr1 were prepared by GenScript starting from LAP2 Nurr1 vector; made in house
T1 sequence (P43354 with tags, fused parts or gaps H516A/R563A): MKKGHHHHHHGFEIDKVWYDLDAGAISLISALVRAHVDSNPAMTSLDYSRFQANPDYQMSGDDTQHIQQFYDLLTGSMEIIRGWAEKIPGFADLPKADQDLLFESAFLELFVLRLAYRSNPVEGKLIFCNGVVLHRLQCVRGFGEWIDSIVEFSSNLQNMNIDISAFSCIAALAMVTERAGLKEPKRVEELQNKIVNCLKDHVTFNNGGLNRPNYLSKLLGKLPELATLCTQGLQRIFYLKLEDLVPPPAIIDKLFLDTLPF
Method: The plasmid used for the expression of LAP2-tagged Nurr1 LBDs (LAP2 Nurr1) was prepared by GenScript (Piscataway, N.J.) as the product of gene synthesis and subcloning into pET-21a(+) Vector (GenScript) using the Ndel and Xhol sites within the MCS. Mutants of LAP2 Nurr1 were prepared by GenScript starting from LAP2 Nurr1 vector.
Concentration-dependent association of the indoles with the Nurr1 LBD was carried out using microscale thermophoresis. Stock solutions (10 mM in DMSO) of each indole were serially diluted (200 μM indole, 0.5× dilutions down to 0.0061 μM) in MST buffer (25 mM HEPES, pH 7.4, 150 mM NaCl, and 0.1% Pluronic F127) containing 2% DMSO. The dilutions were carried out with 4% DMSO in the MST buffer for a total of 16 concentrations. Equivalent volumes and concentrations of the fluorescently labeled Nurr1 LBD in MST buffer were added to each ligand dilution in the series to reach a final concentration of 75 nM labeled protein. After incubating for 20 minutes, the samples were loaded into Monolith NT.115 Capillaries (Nanotemper).
Data were collected using the Monolith NT.115 System (Nanotemper), with settings for all samples at 40% excitation power and 40% MST power. The initial fluorescence was recorded for 3 sec and the thermophoresis fluorescence response was recorded for 20 sec. The data was inspected with Palmist software^5, and data points affected by initial fluorescence quenching or photobleaching were eliminated. The fluorescent response for each sample was normalized to the initial fluorescence using Palmist software to provide the values of thermophoresis (Fn). The resulting data was used to generate a plot of the change in thermophoresis (Fn-Fn0, where Fn=thermophoresis and Fn0=thermophoresis response in unbound range) versus concentration of the ligand. GraphPad Prism v. 8.3.0 software was used to fit the resulting data to a mass action equation for a specific binding with Hill slope, solving for KD: Fn-Fn0═Fmax·[L]^n/(KD^n+[L]^n), where Fmax=maximum amplitude of thermophoresis, [L]=concentration of the ligand at a specific point, KD=dissociation constant, nH=Hill Coefficient.

[3] = Table 1, H516A/R563A relative to WT

SMILES	Cytotoxicity / cell viability (MN9D cells)	Precipitation under MST assay conditions [1]	Binding to Arg563Ala + His516Ala mutant Nurr1 LBD (in words) ([2]; MST)	Amplitude (% change) [2, 3]	Amplitude [2]	Response Amplitude [2]	KD (% change) [2, 3]	Kd ([2]; Table 1, Nurr1 variant H516A/R563A, read-out: KD)	Kd ([2]; Table 2, Arg563Ala + His516Ala, read-out: Affinity (KD))
Brc1ccc2[nH]ccc2c1 [5-bromoindole]	somewhat toxic to cells under certain conditions	do not precipitate under the assay conditions	completely eliminated	≥−86%	- (≤10)	≤10 (****)	–	–	–
Clc1ccc2[nH]ccc2c1 [5-chloroindole]	no significant effect on cell viability; also recorded: not cytotoxic; also recorded: non-cytotoxic	do not precipitate under the assay conditions	–	−62%	26 + 2	23 + 1 (****)	−68%	8 µM	7.3 µM
